Experimental findings from US9951052B2, “Inhibitors of the renal outer medullary potassium channel” (Merck Sharp & Dohme Corp., priority 2013, dated 2018) are described below.

As a reminder, the IC50 is the concentration at which inhibition is half-maximal.

Each structure is given as a SMILES string. Counter-ions that a name gives are not always drawn.

The test has as its target T1, hROMK (hKir1.1) (Homo sapiens, UniProt P48048).
T1 construct: expressed in transfected cells
T1 sequence (P48048 1-391): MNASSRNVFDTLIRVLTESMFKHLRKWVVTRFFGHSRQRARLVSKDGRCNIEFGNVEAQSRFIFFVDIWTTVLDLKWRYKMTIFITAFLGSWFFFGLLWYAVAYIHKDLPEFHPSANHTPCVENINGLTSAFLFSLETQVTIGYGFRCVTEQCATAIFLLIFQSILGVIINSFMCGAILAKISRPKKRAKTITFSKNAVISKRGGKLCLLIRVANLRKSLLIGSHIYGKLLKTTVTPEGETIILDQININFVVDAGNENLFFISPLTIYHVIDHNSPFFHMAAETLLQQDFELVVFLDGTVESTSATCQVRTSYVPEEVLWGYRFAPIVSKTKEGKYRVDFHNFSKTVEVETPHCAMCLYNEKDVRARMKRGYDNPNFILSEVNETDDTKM
As to the kind of experiment: Thallium Flux Assay (ROMK channel functional thallium flux, FLIPR-Tetra). Type of test: cell-based. To be noted: HEK293 cells stably expressing hROMK (hKir1.1); 30 min incubation with compound; HCl salt run where final product was an HCl salt. Here is the method: The following Thallium Flux Assay was performed on each of the final product compounds in the Examples. When the final product of an Example was an HCl salt, the salt was run in the Assay.
Cell Culture Conditions—HEK293 cells stably expressing hROMK (hKir1.1) were grown at 37° C. in a 10% CO2 humidified incubator in complete growth media: Dulbecco's Modified Eagle Medium supplemented with non-essential amino acids, Penicillin/Streptomycin/Glutamine, G418 and FBS. At >80% confluency, aspirate the media from the flask and rinse with 10 mL Calcium/Magnesium-free PBS. Add 5 mL of 1× trypsin (prepared in Ca/Mg Free PBS) to T-225 flask and return flask to 37° C./CO2 incubator for 2-3 minutes. To dislodge the cell, gently bang the side of the flask with your hand. Triturate the cells completely and then transfer the cells to 25 mL complete media. Centrifuge at 1,500 rpm for 6 min followed by resuspension in complete growth media and determine cell concentration. For typical re-seeding, 4E6 cells/T-225 flask will attain >80% confluency in 4 days. Under ideal growth conditions and appropriate tissue culture practices, this cell line is stable for 40-45 passages.
FluxOR Kit Components (Invitrogen F10017)
• FluxOR™ Reagent (Component A) • FluxOR™ Assay Buffer (Component B)—10× Concentrate • PowerLoad™ Concentrate (Component C)—100× Concentrate • Probenecid (Component D)—Lyophilized sample is kept at −20° C. Water soluble, 100× after solubilization in 1 mL water. Store at 4° C. • FluxOR™ Chloride-free Buffer (Component E)—5× Concentrate • Potassium sulfate (K2SO4) Concentrate (Component F)—125 mM in water. Store at 4° C. • Thallium sulfate (T12SO4) Concentrate (Component G)—50 mM in water. Store at 4° C. • DMSO (dimethyl sulfoxide, Component H)—1 mL (100%) Reagent Preparation: FluxOR Working Solutions • 1000× FluxOR™ Reagent: Reconstitute a vial of component A in 100 μl DMSO; Mix well; Store 10 μl aliquots at −20° C. • 1× FluxOR™ Assay Buffer: Dilute Component B 10-fold with water; Adjust pH to 7.4 with Hepes/NaOH; Filter and store at 4° C. • Probenecid/Assay Buffer: 100 mL of 1× FluxOR™ Assay Buffer; 1 mL of reconstituted component D; Store at 4° C. • Loading Buffer (per microplate): 10 μl 1000× FluxOR™ Reagent; 100 μl component C; 10 mL Probenecid/Assay Buffer • Compound Buffer (per microplate): 20 mL Probenecid/Assay Buffer; 0.3 mM ouabain (10 mM ouabain in water can be stored in amber bottle/aluminum foil at room temperature); Test compound • 1× FluxOR™ Chloride-Free Buffer: Prepare 1× working solution in water. Can be stored at room temperature • Stimulant Buffer (prepared at 5× final concentration in 1× FluxOR™ Chloride-Free Buffer): 7.5 mM Thallium sulfate and 0.75 mM Potassium sulfate (to give a final assay concentration of 3 mM Thallium/0.3 mM Potassium). Store at 4° C. when not in use.
Assay protocol—The ROMK channel functional thallium flux assay is performed in 384 wells, using the FLIPR-Tetra instrument. HEK-hKir1.1 cells are seeded in Poly-D-Lysine microplates and kept in a 37° C.-10% CO2 incubator overnight. On the day of the experiment, the growth media is replaced with the FluxOR™ reagent loading buffer and incubated, protected from light, at ambient temperature (23-25° C.) for 90 min. The loading buffer is replaced with assay buffer±test compound followed by 30 min incubation at ambient temperature, where the Thallium/Potassium stimulant is added to the microplate.
• 1. Seed HEK-hKir1.1 cells (50 μl at 20,000 cells/well) in 384-well PDL coated Microplates • 2. Allow cells to adhere overnight in humidified 37° C./10% CO2 incubator • 3. Completely remove cell growth media from microplate and replace with 25 μl loading buffer • 4. Incubate Microplate at room temperature, protected from light, for 90 min • 5. Remove loading buffer and replace with 25 μl 1× Assay Buffer±test compound. • 6. Incubate microplate at room temperature, protected from light, for 30 min • 7. […]
As for `CCN(C(=O)C1CCN(C[C@H](O)c2ccc3c(c2C)COC3=O)CC1)c1ccns1` [Example 43, (R)-N-ethyl-1-(2-hydroxy-2-(4-methyl-1-oxo-1,3-dihydroisobenzofuran-5-yl)ethyl)-N-(isothiazol-5-yl)piperidine-4-carboxamide], the IC50 was 50 nM.

On to `Cc1cc(N(C)C(=O)C2CCN(C[C@H](O)c3ccc4c(c3C)COC4=O)CC2)sn1` [Example 44, (R)-1-(2-hydroxy-2-(4-methyl-1-oxo-1,3-dihydroisobenzofuran-5-yl)ethyl)-N-methyl-N-(3-methylisothiazol-5-yl)piperidine-4-carboxamide], for which the IC50 came to 20 nM.

On to `COc1nsc(N(C)C(=O)C2CCN(C[C@H](O)c3ccc4c(c3C)COC4=O)CC2)n1` [Example 45, (R)-1-(2-hydroxy-2-(4-methyl-1-oxo-1,3-dihydroisobenzofuran-5-yl)ethyl)-N-(3-methoxy-1,2,4-thiadiazol-5-yl)-N-methylpiperidine-4-carboxamide], for which the IC50 is 250 nM.

For the molecule `Cc1c([C@@H](O)CN2CCC(N)(C(=O)Nc3ccns3)CC2)ccc2c1COC2=O` [Example 46, 4-amino-1-[(2R)-2-hydroxy-2-(4-methyl-1-oxo-1,3-dihydro-2-benzofuran-5-yl)ethyl]-N-(isothiazol-5-yl)piperidine-4-carboxamide hydrochloride], the IC50 stood at 50 nM.

For `Cc1c([C@@H](O)CN2CCC(F)(C(=O)Nc3ccns3)CC2)ccc2c1COC2=O` [Example 47, 4-fluoro-1-[(2R)-2-hydroxy-2-(4-methyl-1-oxo-1,3-dihydro-2-benzofuran-5-yl)ethyl]-N-(isothiazol-5-yl)piperidine-4-carboxamide], the IC50 worked out at 60 nM.

As for `Cc1cc(NC(=O)C2(F)CCN(C[C@H](O)c3ccc4c(c3C)COC4=O)CC2)sn1` [Example 48, (R)-4-fluoro-1-(2-hydroxy-2-(4-methyl-1-oxo-1,3-dihydroisobenzofuran-5-yl)ethyl)-N-(3-methylisothiazol-5-yl)piperidine-4-carboxamide], the IC50 was found to be 40 nM.

`Cc1c([C@@H](O)CN2CCC(F)(C(=O)N3CCc4cnccc43)CC2)ccc2c1COC2=O` [Example 49, (R)-5-(2-(4-(2,3-dihydro-1H-pyrrolo[3,2-c]pyridine-1-carbonyl)-4-fluoropiperidin-1-yl)-1-hydroxyethyl)-4-methylisobenzofuran-1(3H)-one]: the IC50 was determined as 200 nM.

For `Cc1c([C@@H](O)CN2CCC(F)(C(=O)Nc3cnsc3)CC2)ccc2c1COC2=O` [Example 50, (R)-4-fluoro-1-(2-hydroxy-2-(4-methyl-1-oxo-1,3-dihydroisobenzofuran-5-yl)ethyl)-N-(isothiazol-4-yl)piperidine-4-carboxamide], the IC50 came out at 370 nM.

As to `Cc1nc(NC(=O)C2(F)CCN(C[C@H](O)c3ccc4c(c3C)COC4=O)CC2)ccc1C#N` [Example 51, (R)-N-(5-cyano-6-methylpyridin-2-yl)-4-fluoro-1-(2-hydroxy-2-(4-methyl-1-oxo-1,3-dihydroisobenzofuran-5-yl)ethyl)piperidine-4-carboxamide], the IC50 worked out at 220 nM.

On to `Cc1c([C@@H](O)CN2CCC(F)(C(=O)Nc3ccc(C#N)cn3)CC2)ccc2c1COC2=O` [Example 52, (R)-N-(5-cyanopyridin-2-yl)-4-fluoro-1-(2-hydroxy-2-(4-methyl-1-oxo-1,3-dihydroisobenzofuran-5-yl)ethyl)piperidine-4-carboxamide], for which the IC50 was found to be 260 nM.

Take `Cc1c([C@@H](O)CN2CCC(F)(C(=O)Nc3cnns3)CC2)ccc2c1COC2=O` [Example 53, (R)-4-fluoro-1-(2-hydroxy-2-(4-methyl-1-oxo-1,3-dihydroisobenzofuran-5-yl)ethyl)-N-(1,2,3-thiadiazol-5-yl)piperidine-4-carboxamide]: the IC50 is 260 nM.

Turning to `Cc1c([C@@H](O)CN2CC3C(C2)C3C(=O)Nc2ccns2)ccc2c1COC2=O` (stereo partly drawn) [Example 54, 3-[(2R)-2-hydroxy-2-(4-methyl-1-oxo-1,3-dihydro-2-benzofuran-5-yl)ethyl]-N-(isothiazol-5-yl)-3-azabicyclo[3.1.0]hexane-6-carboxamide], the IC50 amounted to 160 nM.

For the molecule `Cc1cc(NC(=O)C2C3CN(C[C@H](O)c4ccc5c(c4C)COC5=O)CC32)sn1` (stereo partly drawn) [Example 55, 3-((R)-2-hydroxy-2-(4-methyl-1-oxo-1,3-dihydroisobenzofuran-5-yl)ethyl)-N-(3-methylisothiazol-5-yl)-3-azabicyclo[3.1.0]hexane-6-carboxamide], the IC50 was found to be 60 nM.

On to `Cc1nsc(NC(=O)C2C3CN(C[C@H](O)c4ccc5c(c4C)COC5=O)CC32)n1` (stereo partly drawn) [Example 56, 3-((R)-2-hydroxy-2-(4-methyl-1-oxo-1,3-dihydroisobenzofuran-5-yl)ethyl)-N-(3-methyl-1,2,4-thiadiazol-5-yl)-3-azabicyclo[3.1.0]hexane-6-carboxamide], for which the IC50 stood at 350 nM.

On to `COc1nsc(NC(=O)C2C3CN(C[C@H](O)c4ccc5c(c4C)COC5=O)CC32)n1` (stereo partly drawn) [Example 57, 3-((R)-2-hydroxy-2-(4-methyl-1-oxo-1,3-dihydroisobenzofuran-5-yl)ethyl)-N-(3-methoxy-1,2,4-thiadiazol-5-yl)-3-azabicyclo[3.1.0]hexane-6=carboxamide], for which the IC50 was 310 nM.

Turning to `Cc1c([C@@H](O)CN2CC3C(C2)C3C(=O)Nc2cnsc2)ccc2c1COC2=O` (stereo partly drawn) [Example 58, 3-((R)-2-hydroxy-2-(4-methyl-1-oxo-1,3-dihydroisobenzofuran-5-yl)ethyl)-N-(isothiazol-4-yl)-3-azabicyclo[3.1.0]hexane-6-carboxamide], the IC50 amounted to 280 nM.

With `Cc1c([C@@H](O)CN2CC3C(C2)C3C(=O)Nc2ccc(C#N)cn2)ccc2c1COC2=O` (stereo partly drawn) [Example 59, N-(5-cyanopyridin-2-yl)-3-((R)-2-hydroxy-2-(4-methyl-1-oxo-1,3-dihydroisobenzofuran-5-yl)ethyl)-3-azabicyclo[3.1.0]hexane-6-carboxamide], the IC50 is 400 nM.

With `Cc1c([C@@H](O)CN2CC3C(C2)C3C(=O)Nc2ccc(-n3cnnn3)cn2)ccc2c1COC2=O` (stereo partly drawn) [Example 60, N-(5-(1H-tetrazol-1-yl)pyridin-2-yl)-3-((R)-2-hydroxy-2-(4-methyl-1-oxo-1,3-dihydroisobenzofuran-5-yl)ethyl)-3-azabicyclo[3.1.0]hexane-6-carboxamide], the IC50 came out at 470 nM.

Consider `Cc1c([C@@H](O)CN2CC3C(C2)C3C(=O)N(C)c2ccns2)ccc2c1COC2=O` (stereo partly drawn) [Example 61, 3-((R)-2-hydroxy-2-(4-methyl-1-oxo-1,3-dihydroisobenzofuran-5-yl)ethyl)-N-(isothiazol-5-yl)-N-methyl-3-azabicyclo[3.1.0]hexane-6-carboxamide], for which the IC50 is 140 nM.
